As a reminder, the MIC is the least concentration at which growth counts as inhibited. A high value points to weaker potency. As usually defined, the IC50 is the concentration that inhibits the measured activity by half. The AUC(0-inf) is the area under the concentration-time curve extrapolated to infinity. Read a low AUC(0-inf) as less exposure. The term half-life denotes how long it takes for the measured level to halve. A higher half-life goes with slow loss. Broadly, the ED50 is the dose that gives a 50% effect, or the effect in half of the subjects. A low value points to greater potency.

The test system of data set [1] is Aspergillus fumigatus. Briefly: Antifungal activity against Aspergillus fumigatus FP1305 in mouse serum. The format is functional.
Data set [2] is described as follows: Concentration in mouse plasma at 5 mg/kg, iv after 30 mins. The class given is ADME, organism-based. Also noted: dose 5 mg/kg, route intravenous.
The nature of data set [3]: Hemolytic activity in human erythrocytes at 1 mg/ml. The class given is ADME, cell-based, Erythrocyte. To be noted: read-out: Activity.
Data set [4] relates to Aspergillus fumigatus. The data set can be described thus: Antifungal activity against Aspergillus fumigatus FP1305 in RPMI media. The format is functional.
Data set [5] concerns Candida albicans. Briefly: Antifungal activity against Candida albicans FP633 in RPMI media. The format is functional.
Data set [6] in a line: AUC (0 to infinity) in mouse at 5 mg/kg, iv after 30 mins. More on the design: time infinity, dose 5 mg/kg, route intravenous. Particulars: plasma. The format is ADME, organism-based.
For data set [7], the system named is Candida albicans. The data set can be described thus: Antifungal activity against Candida albicans FP633 in mouse serum. The class given is functional.
Data set [8] in a line: Half life in mouse at 5 mg/kg, iv after 30 mins. Particulars: in vivo. Also noted: dose 5 mg/kg, route intravenous. The format is ADME, organism-based.
The test system of data set [9] is Candida albicans. The data set can be described thus: Antifungal activity against Candida albicans FP633 infected in mouse. The class given is functional.
The subject of data set [10] is Aspergillus fumigatus. The data set can be described thus: Antifungal activity against Aspergillus fumigatus FP1305 infected in mouse.

*1 amine or outer side, *2 acyl side, *3 side chain or, on linkers, in order; H or OH if unused. Where a SMILES comes first, the peptide text is derived from it. Bridges are numbered along the chain shown (N, C = ends). [ ]: non-standard residue; d: D form. The star is where a group is joined. ξ: configuration not given here. hTyr(3S-OH,4S-OH,3'-OSO3H) = N[C@H](C(=O)O)[C@H](O)[C@@H](O)c1ccc(O)c(OS(=O)(=O)O)c1; Orn(4R-OH,5R-OH) = O=C([C@H](C[C@@H](O)[C@@H](O)N[*:3])N[*:1])[*:2]; Orn(4R-OH,5S-OH) = O=C([C@H](C[C@@H](O)[C@H](O)N[*:3])N[*:1])[*:2]; X4 = CCCCCCOc1ccc(-c2nnc(-c3ccc(C(=O)*)cc3)s2)cc1; X6 = CCCCCCCOc1ccc(N2CCN(c3ccc(C(=O)*)cn3)CC2)cc1; Pro(3S-OH,4S-Me) = C[C@H]1CN[C@H](C(=O)O)[C@H]1O; X1 = CCCCCCOc1ccc(N2CCN(c3ccc(C(=O)*)cc3)CC2)cc1; X2 = CCCCCOc1ccc(-c2cc(-c3ccc(C(=O)*)cc3)no2)cc1; X3 = CCCCOc1ccc(-c2ccc(-c3ccc(C(=O)*)cc3)cc2)cc1; X5 = CCCCCOc1ccc(-c2cc(-c3ccc(C(=O)*)cc3)on2)cc1; X7 = CCCCCCOc1ccc(C2CCN(c3ccc(C(=O)*)cc3)CC2)cc1; X8 = CCCCCOc1ccc(-c2nc(-c3ccc(C(=O)*)cc3)cs2)cc1; Benzoyl(4-octyloxy) = CCCCCCCCOc1ccc(C(=O)*)cc1; Gln(3R-OH) = NC(=O)C[C@@H](O)[C@H](N)C(=O)O; Hyp = O=C(O)[C@@H]1C[C@@H](O)CN1; ξThr(3R) = C[C@@H](O)C(N)C(=O)O

`CCCCCCOc1ccc(N2CCN(c3ccc(C(=O)N[C@H]4C[C@@H](O)[C@@H](O)NC(=O)[C@@H]5[C@@H](O)[C@@H](C)CN5C(=O)[C@H]([C@H](O)CC(N)=O)NC(=O)[C@H]([C@H](O)[C@@H](O)c5ccc(O)c(OS(=O)(=O)[O-])c5)NC(=O)[C@@H]5C[C@@H](O)CN5C(=O)C([C@@H](C)O)NC4=O)cc3)CC2)cc1.[Na+]` (stereo partly drawn) (X1-[Orn(4R-OH,5R-OH)][ξThr(3R)][Hyp][hTyr(3S-OH,4S-OH,3'-OSO3H)][Gln(3R-OH)][Pro(3S-OH,4S-Me)]; lactam 1-C): the figures for the MIC in the data set on Aspergillus fumigatus [1], against Candida albicans [5] and against Candida albicans [7] were 1.56 µg/mL, 0.1 µg/mL and 3.13 µg/mL, respectively. The same compound returned a concentration at 0.5 h in [2] of 18800 ng/mL. Further, in [3], the hemolysis at 1 mg/ml is less than 20%. In addition, half-maximal inhibition with Aspergillus fumigatus [4] (IC50) required 0.002 µg/mL. The same compound yielded an AUC(0-inf) in data set [6] of 105 µg·h/mL. Besides, the half-life in [8] is 3.5 h. The ED50 in the data set with Candida albicans [9] stood at 0.395 mg/kg; in the data set with Aspergillus fumigatus [10], 0.531 mg/kg.
In the case of `CCCCCOc1ccc(-c2cc(-c3ccc(C(=O)N[C@H]4C[C@@H](O)[C@@H](O)NC(=O)[C@@H]5[C@@H](O)[C@@H](C)CN5C(=O)[C@H]([C@H](O)CC(N)=O)NC(=O)[C@H]([C@H](O)[C@@H](O)c5ccc(O)c(OS(=O)(=O)O)c5)NC(=O)[C@@H]5C[C@@H](O)CN5C(=O)[C@H]([C@@H](C)O)NC4=O)cc3)no2)cc1` (X2-[Orn(4R-OH,5R-OH)]T[Hyp][hTyr(3S-OH,4S-OH,3'-OSO3H)][Gln(3R-OH)][Pro(3S-OH,4S-Me)]; lactam 1-C), the hemolysis at 1 mg/ml in data set [3] is less than 20%.
As for `CCCCCOc1ccc(-c2cc(-c3ccc(C(=O)N[C@H]4C[C@@H](O)[C@@H](O)NC(=O)[C@@H]5[C@@H](O)[C@@H](C)CN5C(=O)[C@H]([C@H](O)CC(N)=O)NC(=O)[C@H]([C@H](O)[C@@H](O)c5ccc(O)c(OS(=O)(=O)[O-])c5)NC(=O)[C@@H]5C[C@@H](O)CN5C(=O)C([C@@H](C)O)NC4=O)cc3)no2)cc1.[Na+]` (stereo partly drawn) (X2-[Orn(4R-OH,5R-OH)][ξThr(3R)][Hyp][hTyr(3S-OH,4S-OH,3'-OSO3H)][Gln(3R-OH)][Pro(3S-OH,4S-Me)]; lactam 1-C), the minimal inhibitory concentration (MIC) was 1.56 µg/mL with Aspergillus fumigatus [1], 0.05 µg/mL against Candida albicans [5] and 1.56 µg/mL in the data set with Candida albicans [7]. For the same compound, the concentration at 0.5 h in data set [2] turned out to be 10100 ng/mL. In the data set with Aspergillus fumigatus [4], this compound yielded an IC50 of 0.002 µg/mL. In data set [6], the AUC(0-inf) turned out to be 78 µg·h/mL. The compound further gave a half-life in data set [8] of 5.1 h. Further, the ED50 with Candida albicans [9] was 0.325 mg/kg; with Aspergillus fumigatus [10], 0.228 mg/kg.
As to `CCCCOc1ccc(-c2ccc(-c3ccc(C(=O)N[C@H]4C[C@@H](O)[C@@H](O)NC(=O)[C@@H]5[C@@H](O)[C@@H](C)CN5C(=O)[C@H]([C@H](O)CC(N)=O)NC(=O)[C@H]([C@H](O)[C@@H](O)c5ccc(O)c(OS(=O)(=O)[O-])c5)NC(=O)[C@@H]5C[C@@H](O)CN5C(=O)[C@H]([C@@H](C)O)NC4=O)cc3)cc2)cc1.[Na+]` (X3-[Orn(4R-OH,5R-OH)]T[Hyp][hTyr(3S-OH,4S-OH,3'-OSO3H)][Gln(3R-OH)][Pro(3S-OH,4S-Me)]; lactam 1-C), the MIC amounted to 1.56 µg/mL in the data set with Aspergillus fumigatus [1], 0.025 µg/mL in the data set on Candida albicans [5] and 1.56 µg/mL against Candida albicans [7]. For the same compound, in [3], the hemolysis at 1 mg/ml came out at 79%. The compound also came in with an IC50 in the data set on Aspergillus fumigatus [4] of 0.002 µg/mL. In the data set with Candida albicans [9], this compound registered a median effective dose (ED50) of 0.447 mg/kg.
For `CCCCCCOc1ccc(-c2nnc(-c3ccc(C(=O)N[C@H]4C[C@@H](O)[C@@H](O)NC(=O)[C@@H]5[C@@H](O)[C@@H](C)CN5C(=O)[C@H]([C@H](O)CC(N)=O)NC(=O)[C@H]([C@H](O)[C@@H](O)c5ccc(O)c(OS(=O)(=O)[O-])c5)NC(=O)[C@@H]5C[C@@H](O)CN5C(=O)C([C@@H](C)O)NC4=O)cc3)s2)cc1.[Na+]` (stereo partly drawn) (X4-[Orn(4R-OH,5R-OH)][ξThr(3R)][Hyp][hTyr(3S-OH,4S-OH,3'-OSO3H)][Gln(3R-OH)][Pro(3S-OH,4S-Me)]; lactam 1-C), the values for the MIC against Aspergillus fumigatus [1], against Candida albicans [5] and in the data set with Candida albicans [7] were 0.78 µg/mL, 0.05 µg/mL and 0.78 µg/mL, respectively. Besides, the hemolysis at 1 mg/ml in data set [3] stood at 42%. For the same compound, the IC50 in the data set with Aspergillus fumigatus [4] was found to be 0.002 µg/mL.
For the compound `CCCCCOc1ccc(-c2cc(-c3ccc(C(=O)N[C@H]4C[C@@H](O)[C@@H](O)NC(=O)[C@@H]5[C@@H](O)[C@@H](C)CN5C(=O)[C@H]([C@H](O)CC(N)=O)NC(=O)[C@H]([C@H](O)[C@@H](O)c5ccc(O)c(OS(=O)(=O)[O-])c5)NC(=O)[C@@H]5C[C@@H](O)CN5C(=O)C([C@@H](C)O)NC4=O)cc3)on2)cc1.[Na+]` (stereo partly drawn) (X5-[Orn(4R-OH,5R-OH)][ξThr(3R)][Hyp][hTyr(3S-OH,4S-OH,3'-OSO3H)][Gln(3R-OH)][Pro(3S-OH,4S-Me)]; lactam 1-C), the MIC against Aspergillus fumigatus [1] came out at 0.78 µg/mL; in the data set with Candida albicans [5], 0.05 µg/mL; with Candida albicans [7], 1.56 µg/mL. In [3], the hemolysis at 1 mg/ml worked out at 38%. This compound also showed an IC50 in the data set on Aspergillus fumigatus [4] of 0.001 µg/mL.
For `CCCCCCCOc1ccc(N2CCN(c3ccc(C(=O)N[C@H]4C[C@@H](O)[C@@H](O)NC(=O)[C@@H]5[C@@H](O)[C@@H](C)CN5C(=O)[C@H]([C@H](O)CC(N)=O)NC(=O)[C@H]([C@H](O)[C@@H](O)c5ccc(O)c(OS(=O)(=O)[O-])c5)NC(=O)[C@@H]5C[C@@H](O)CN5C(=O)C([C@@H](C)O)NC4=O)cn3)CC2)cc1.[Na+]` (stereo partly drawn) (X6-[Orn(4R-OH,5R-OH)][ξThr(3R)][Hyp][hTyr(3S-OH,4S-OH,3'-OSO3H)][Gln(3R-OH)][Pro(3S-OH,4S-Me)]; lactam 1-C), in that order: 6.25 µg/mL, 0.2 µg/mL, 3.13 µg/mL, less than 20% and 0.005 µg/mL.
Taken in the same sequence, the figures for `CCCCCCOc1ccc(C2CCN(c3ccc(C(=O)N[C@H]4C[C@@H](O)[C@@H](O)NC(=O)[C@@H]5[C@@H](O)[C@@H](C)CN5C(=O)[C@H]([C@H](O)CC(N)=O)NC(=O)[C@H]([C@H](O)[C@@H](O)c5ccc(O)c(OS(=O)(=O)[O-])c5)NC(=O)[C@@H]5C[C@@H](O)CN5C(=O)C([C@@H](C)O)NC4=O)cc3)CC2)cc1.[Na+]` (stereo partly drawn) (X7-[Orn(4R-OH,5R-OH)][ξThr(3R)][Hyp][hTyr(3S-OH,4S-OH,3'-OSO3H)][Gln(3R-OH)][Pro(3S-OH,4S-Me)]; lactam 1-C) were 1.56 µg/mL, 0.05 µg/mL, 1.56 µg/mL, 33% and 0.003 µg/mL.
For the compound `CCCCCOc1ccc(-c2nc(-c3ccc(C(=O)N[C@H]4C[C@@H](O)[C@@H](O)NC(=O)[C@@H]5[C@@H](O)[C@@H](C)CN5C(=O)[C@H]([C@H](O)CC(N)=O)NC(=O)[C@H]([C@H](O)[C@@H](O)c5ccc(O)c(OS(=O)(=O)[O-])c5)NC(=O)[C@@H]5C[C@@H](O)CN5C(=O)C([C@@H](C)O)NC4=O)cc3)cs2)cc1.[Na+]` (stereo partly drawn) (X8-[Orn(4R-OH,5R-OH)][ξThr(3R)][Hyp][hTyr(3S-OH,4S-OH,3'-OSO3H)][Gln(3R-OH)][Pro(3S-OH,4S-Me)]; lactam 1-C), the MIC against Aspergillus fumigatus [1] is 3.13 µg/mL; against Candida albicans [5], 0.1 µg/mL; against Candida albicans [7], 6.25 µg/mL. For the same compound, in [3], the hemolysis at 1 mg/ml is less than 20%.
`CCCCCCCCOc1ccc(C(=O)N[C@H]2C[C@@H](O)[C@H](O)NC(=O)[C@@H]3[C@@H](O)[C@@H](C)CN3C(=O)[C@H]([C@H](O)CC(N)=O)NC(=O)[C@H]([C@H](O)[C@@H](O)c3ccc(O)c(OS(=O)(=O)[O-])c3)NC(=O)[C@@H]3C[C@@H](O)CN3C(=O)[C@H]([C@@H](C)O)NC2=O)cc1.[Na+]` [FR-131535] ({Benzoyl(4-octyloxy)}-[Orn(4R-OH,5S-OH)]T[Hyp][hTyr(3S-OH,4S-OH,3'-OSO3H)][Gln(3R-OH)][Pro(3S-OH,4S-Me)]; lactam 1-C): the minimal inhibitory concentration (MIC) in the data set on Aspergillus fumigatus [1] came out at 12.5 µg/mL; in the data set on Candida albicans [7], 25 µg/mL. The compound further showed a concentration at 0.5 h in data set [2] of 30300 ng/mL. This compound also yielded an AUC(0-inf) in [6] of 109 µg·h/mL. The compound also showed a half-life in [8] of 2 h.

The record behind these values is ChEMBL document CHEMBL1145626, “Novel echinocandin antifungals. Part 2: Optimization of the side chain of the natural product FR901379. Discovery of micafungin” (Bioorg Med Chem Lett, 2008).
